Data: patent publication US9370515B2, “Mixed lineage kinase inhibitors and method of treatments” (CALIFIA BIO, INC., priority 2013, dated 2016)

Molecular target: MLK-3 (Homo sapiens, UniProt Q16584)
Assay: Biochemical assay for the inhibition of kinase activity for MLK-3 (33P-ATP, HOTSPOT filter binding)
Details: activated MLK-3 20 nM, ATP 50 μM, myelin basic protein 20 μM, 20 minutes room temperature
Protocol: Biochemical Assay for the Inhibition of Kinase Activity for MLK-3: Myelin basic protein (20 μM final concentration) is dissolved in 20 mM Hepes (pH 7.5) containing […], […], 0.02% Brij35, 0.02 mg/ml BSA, 0.1 μM Na3VO4, 2 mM DTT, and 1% DMSO. Activated MLK-3 is added and mixed (20 nM final concentration), and inhibitors are added in DMSO. ^33P-ATP (specific activity 500 μCi/μL) is delivered into the reaction mixture to initiate the reaction (ATP concentration is 50 μM) and the mixture is incubated at room temperature for 20 minutes. % Activity is determined using a proprietary HOTSPOT™ microfluidic filter binding technology. See, Expert Opin. Drug Discov. 2008 June; 3(6): 607-621.

Chain of MLK-3 (Q16584 whole entry): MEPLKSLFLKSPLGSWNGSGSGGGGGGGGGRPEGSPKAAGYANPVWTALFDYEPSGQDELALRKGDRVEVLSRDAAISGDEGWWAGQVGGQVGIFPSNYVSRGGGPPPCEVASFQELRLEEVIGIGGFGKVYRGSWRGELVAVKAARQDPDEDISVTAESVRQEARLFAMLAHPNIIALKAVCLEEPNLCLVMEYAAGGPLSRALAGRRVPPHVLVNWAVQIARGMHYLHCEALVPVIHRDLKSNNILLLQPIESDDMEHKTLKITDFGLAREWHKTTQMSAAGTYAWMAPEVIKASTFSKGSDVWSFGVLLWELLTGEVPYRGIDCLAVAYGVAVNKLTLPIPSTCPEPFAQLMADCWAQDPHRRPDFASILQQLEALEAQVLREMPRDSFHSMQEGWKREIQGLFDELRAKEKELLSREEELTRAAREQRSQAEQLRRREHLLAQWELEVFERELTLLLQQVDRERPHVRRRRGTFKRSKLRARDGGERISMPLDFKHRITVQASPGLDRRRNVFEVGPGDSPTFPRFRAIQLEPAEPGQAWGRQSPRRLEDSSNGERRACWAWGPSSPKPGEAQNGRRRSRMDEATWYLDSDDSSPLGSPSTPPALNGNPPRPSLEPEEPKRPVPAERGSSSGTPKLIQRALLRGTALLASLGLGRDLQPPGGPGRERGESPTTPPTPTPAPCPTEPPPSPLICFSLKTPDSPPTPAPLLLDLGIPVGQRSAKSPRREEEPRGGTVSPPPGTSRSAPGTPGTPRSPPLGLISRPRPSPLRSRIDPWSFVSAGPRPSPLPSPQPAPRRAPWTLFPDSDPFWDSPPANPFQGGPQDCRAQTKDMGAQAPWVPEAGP

**Q.** COc1ccc(Nc2ccc3ncc(-c4ccc5[nH]ccc5c4)n3n2)cc1OC [Compound 53, 3-(1H-indol-5-yl)-N-(3,4-dimethoxyphenyl)imidazo[1,2-b]pyridazin-6-amine] was tested. Which IC50 did it give?
**A.** The IC50 was 500 to 1000 nM.

**Q.** Which IC50 does the source give for COC(=O)c1cccc(Nc2ccc3ncc(-c4ccc5[nH]ccc5c4)n3n2)c1 [Compound 61, methyl 3-(3-(1H-indol-5-yl)imidazo[1,2-b]pyridazin-6-ylamino)benzoate] here?
**A.** Its IC50 is < 5000 nM.

**Q.** Which IC50 does the source give for COc1ccc2cc(-c3cnc4ccc(N[C@H]5CC[C@H](O)CC5)nn34)sc2c1 [Compound 172, trans-4-(3-(6-methoxybenzo[b]thiophen-2-yl)imidazo[1,2-b]pyridazin-6-ylamino)cyclohexanol] here?
**A.** The IC50 was 100 to 500 nM.

**Q.** Which IC50 does the source give for COc1ccc(Nc2ccc3ncc(-c4cc5ccccc5s4)n3n2)cc1O [Compound 31, 5-(3-(benzo[b]thiophen-2-yl)imidazo[1,2-b]pyridazin-6-ylamino)-2-methoxyphenol] here?
**A.** The IC50 was < 5000 nM.

**Q.** COc1cc(Nc2ccc3ncc(-c4cc5ccccc5s4)n3n2)ccc1OCC1CC1 [Compound 28, 3-(benzo[b]thiophen-2-yl)-N-(4-(cyclopropylmethoxy)-3-methoxyphenyl)imidazo[1,2-b]pyridazin-6-amine] was tested. Which IC50 did it give?
**A.** The IC50 was < 5000 nM.

**Q.** For COc1ccc2[nH]c(-c3cnc4ccc(Nc5ccc(OC)c(OC)c5)nn34)cc2c1 [Compound 3, 3-(5-methoxy-1H-indol-2-yl)-N-(3,4-dimethoxyphenyl)imidazo[1,2-b]pyridazin-6-amine], which IC50 is on record?
**A.** Its IC50 is 100 to 500 nM.

**Q.** Which IC50 does the source give for COc1cc(Nc2ccc3ncc(-c4cc5ccccc5s4)n3n2)ccc1OCCCO [Compound 27, 3-(4-(3-(benzo[b]thiophen-2-yl)imidazo[1,2-b]pyridazin-6-ylamino)-2-methoxyphenoxy)propan-1-ol] here?
**A.** The IC50 was 100 to 500 nM.

**Q.** For COc1ccc(Nc2ccc3ncc(-c4cc5ncccc5s4)n3n2)cc1OC [Compound 208, N-(3,4-dimethoxyphenyl)-3-(thieno[3,2-b]pyridin-2-yl)imidazo[1,2-b]pyridazin-6-amine], which IC50 is on record?
**A.** Its IC50 is < 5000 nM.

**Q.** Which IC50 does the source give for Oc1cccc2cc(-c3cnc4ccc(N[C@H]5CC[C@H](O)CC5)nn34)sc12 [Compound 77] here?
**A.** Its IC50 is < 100 nM.

**Q.** How did the IC50 turn out when COc1cc2cc(-c3cnc4ccc(-c5cccc(CN6CCN(C)CC6)c5)nn34)sc2cc1OC [Compound 74, 3-(5,6-dimethoxybenzo[b]thiophen-2-yl)-6-(3-((4-methylpiperazin-1-yl)methyl)phenyl)imidazo[1,2-b]pyridazine] was run?
**A.** The IC50 was 500 to 1000 nM.

**Q.** How did the IC50 turn out when COc1cc(Nc2ccc3ncc(-c4cc5ccccc5s4)n3n2)ccc1OC(C)C [Compound 30, 3-(benzo[b]thiophen-2-yl)-N-(4-isopropoxy-3-methoxyphenyl)imidazo[1,2-b]pyridazin-6-amine] was run?
**A.** Its IC50 is < 5000 nM.

**Q.** For O[C@H]1CC[C@H](Nc2ccc3ncc(-c4csc5ccccc45)n3n2)CC1 [Compound 90, trans-4-(3-(benzo[b]thiophen-3-yl)imidazo[1,2-b]pyridazin-6-ylamino)cyclohexanol], which IC50 is on record?
**A.** Its IC50 is 500 to 1000 nM.

**Q.** How did the IC50 turn out when CCCNc1ccc2ncc(-c3ccc4[nH]ccc4c3)n2n1 [Compound 140, 3-(1H-indol-5-yl)-N-propylimidazo[1,2-b]pyridazin-6-amine] was run?
**A.** The IC50 was < 5000 nM.

**Q.** Which IC50 does the source give for COc1ccc(Nc2ccc3ncc(-c4cc5cc(C)ccc5s4)n3n2)cc1OC [Compound 191, N-(3,4-dimethoxyphenyl)-3-(5-methylbenzo[b]thiophen-2-yl)imidazo[1,2-b]pyridazin-6-amine] here?
**A.** Its IC50 is < 5000 nM.

**Q.** COc1cc2cc(-c3cnc4ccc(N[C@H]5CC[C@H](O)CC5)nn34)sc2c(OC)c1OC [Compound 179, trans-4-(3-(5,6,7-trimethoxybenzo[b]thiophen-2-yl)imidazo[1,2-b]pyridazin-6-ylamino)cyclohexanol] was tested. Which IC50 did it give?
**A.** Its IC50 is < 100 nM.

**Q.** How did the IC50 turn out when COc1ccc(Nc2ccc3ncc(-c4cc5cccc(OC)c5[nH]4)n3n2)cc1OC [Compound 5, 3-(7-methoxy-1H-indol-2-yl)-N-(3,4-dimethoxyphenyl)imidazo[1,2-b]pyridazin-6-amine] was run?
**A.** Its IC50 is < 100 nM.

**Q.** With O[C@H]1CC[C@H](Nc2ccc3ncc(-c4cc5cc(F)ccc5s4)n3n2)CC1 [Compound 166, trans-4-(3-(5-fluorobenzo[b]thiophen-2-yl)imidazo[1,2-b]pyridazin-6-ylamino)cyclohexanol] as the molecule, how does the IC50 read?
**A.** The IC50 was 500 to 1000 nM.

**Q.** Which IC50 does the source give for O=C(O)c1cc(Nc2ccc3ncc(-c4cc5ccccc5s4)n3n2)ccc1OCCCO [Compound 44, 5-(3-(benzo[b]thiophen-2-yl)imidazo[1,2-b]pyridazin-6-ylamino)-2-(3-hydroxypropoxy)benzoic acid] here?
**A.** Its IC50 is 500 to 1000 nM.

**Q.** For OCCCCNc1ccc2ncc(-c3ccc4ccccc4c3)n2n1 [Compound 160, 4-(3-(naphthalen-3-yl)imidazo[1,2-b]pyridazin-6-ylamino)butan-1-ol], which IC50 is on record?
**A.** Its IC50 is 500 to 1000 nM.

**Q.** Which IC50 does the source give for COc1ccc(Nc2ccc3ncc(-c4cc5ccncc5s4)n3n2)cc1OC [Compound 218, N-(3,4-dimethoxyphenyl)-3-(thieno[2,3-c]pyridin-2-yl)imidazo[1,2-b]pyridazin-6-amine] here?
**A.** The IC50 was < 100 nM.

**Q.** How did the IC50 turn out when COc1cc2cc(-c3cnc4ccc(N[C@H]5CC[C@](C)(O)CC5)nn34)sc2cc1OC [Compound 173, (1r,4r)-4-(3-(5,6-dimethoxybenzo[b]thiophen-2-yl)imidazo[1,2-b]pyridazin-6-ylamino)-1-methylcyclohexanol] was run?
**A.** Its IC50 is < 100 nM.

**Q.** For O[C@H]1CC[C@H](Nc2ccc3ncc(-c4ccsc4)n3n2)CC1 [Compound 180, trans-(3-(thiophen-3-yl)imidazo[1,2-b]pyridazin-6-ylamino)cyclohexanol], which IC50 is on record?
**A.** The IC50 was < 5000 nM.

**Q.** For OCC1CCCN(c2ccc3ncc(-c4cc5ccccc5s4)n3n2)C1 (stereo not drawn) [Compound 132, (1-(3-(benzo[b]thiophen-2-yl)imidazo[1,2-b]pyridazin-6-yl)piperidin-3-yl)methanol], which IC50 is on record?
**A.** Its IC50 is 500 to 1000 nM.

**Q.** Which IC50 does the source give for CC(CO)CCNc1ccc2ncc(-c3cc4ccccc4s3)n2n1 (stereo not drawn) [Compound 138, 4-(3-(benzo[b]thiophen-2-yl)imidazo[1,2-b]pyridazin-6-ylamino)-2-methylbutan-1-ol] here?
**A.** Its IC50 is 100 to 500 nM.

**Q.** Which IC50 does the source give for COc1ccc(Nc2ccc3ncc(-c4cc5cncc(OC)c5s4)n3n2)cc1OC [Compound 210, N-(3,4-dimethoxyphenyl)-3-(7-methoxythieno[3,2-c]pyridin-2-yl)imidazo[1,2-b]pyridazin-6-amine] here?
**A.** The IC50 was < 5000 nM.

**Q.** For COc1ccc2[nH]c(-c3cnc4ccc(N[C@H]5CC[C@H](O)CC5)nn34)cc2c1 [Compound 85, trans-4-(3-(5-methoxy-1H-indol-2-yl)imidazo[1,2-b]pyridazin-6-ylamino)cyclohexanol], which IC50 is on record?
**A.** Its IC50 is < 100 nM.

**Q.** Which IC50 does the source give for O[C@H]1CC[C@H](Nc2ccc3ncc(-c4cc5ncccc5s4)n3n2)CC1 [Compound 209, trans-4-(3-(thieno[3,2-b]pyridin-2-yl)imidazo[1,2-b]pyridazin-6-ylamino)cyclohexanol] here?
**A.** The IC50 was 500 to 1000 nM.

**Q.** For COc1ccc2sc(-c3cnc4ccc(N[C@H]5CC[C@H](O)CC5)nn34)cc2c1 [Compound 168, trans-4-(3-(5-methoxybenzo[b]thiophen-2-yl)imidazo[1,2-b]pyridazin-6-ylamino)cyclohexanol], which IC50 is on record?
**A.** Its IC50 is 100 to 500 nM.

**Q.** With CCCN(C)c1ccc2ncc(-c3cc4ccccc4s3)n2n1 [Compound 107, 3-(benzo[b]thiophen-2-yl)-N-methyl-N-propylimidazo[1,2-b]pyridazin-6-amine] as the molecule, how does the IC50 read?
**A.** Its IC50 is < 5000 nM.

**Q.** COc1ccc(Nc2ccc3ncc(-c4cc5cnccc5s4)n3n2)cc1OC [Compound 206, N-(3,4-dimethoxyphenyl)-3-(thieno[3,2-c]pyridin-2-yl)imidazo[1,2-b]pyridazin-6-amine] was tested. Which IC50 did it give?
**A.** The IC50 was < 100 nM.

**Q.** For COc1cccc(Nc2ccc3ncc(-c4ccc5[nH]ccc5c4)n3n2)c1 [Compound 54, 3-(1H-indol-5-yl)-N-(3-methoxyphenyl)imidazo[1,2-b]pyridazin-6-amine], which IC50 is on record?
**A.** Its IC50 is < 5000 nM.

**Q.** For OCCN1CCN(c2ccc3ncc(-c4cc5ccccc5s4)n3n2)CC1 [Compound 119, 2-(4-(3-(benzo[b]thiophen-2-yl)imidazo[1,2-b]pyridazin-6-yl)piperazin-1-yl)ethanol], which IC50 is on record?
**A.** The IC50 was < 5000 nM.

**Q.** COc1ccc2cc(-c3cnc4ccc(N[C@H]5CC[C@H](O)CC5)nn34)ccc2c1 [Compound 163, trans-4-(3-(2-methoxynaphthalen-6-yl)imidazo[1,2-b]pyridazin-6-ylamino)cyclohexanol] was tested. Which IC50 did it give?
**A.** Its IC50 is 500 to 1000 nM.

**Q.** With COc1ccc(Nc2ccc3ncc(-c4cc5cccc(C)c5s4)n3n2)cc1OC [Compound 202, N-(3,4-dimethoxyphenyl)-3-(7-methylbenzo[b]thiophen-2-yl)imidazo[1,2-b]pyridazin-6-amine] as the molecule, how does the IC50 read?
**A.** The IC50 was < 5000 nM.

**Q.** COc1cc2cc(-c3cnc4ccc(Nc5ccc(OCCCO)c(OC)c5)nn34)sc2cc1OC [Compound 70, 3-(4-(3-(5,6-dimethoxybenzo[b]thiophen-2-yl)imidazo[1,2-b]pyridazin-6-ylamino)-2-methoxyphenoxy)propan-1-ol] was tested. Which IC50 did it give?
**A.** Its IC50 is < 100 nM.

**Q.** How did the IC50 turn out when CN1CCN(c2cccc(Nc3ccc4ncc(-c5cc6ccccc6s5)n4n3)c2)CC1 [Compound 13, 3-(benzo[b]thiophen-2-yl)-N-(3-(4-methylpiperazin-1-yl)phenyl)imidazo[1,2-b]pyridazin-6-amine] was run?
**A.** Its IC50 is < 5000 nM.

**Q.** For COc1ccc(Nc2ccc3ncc(-c4ccc(CO)s4)n3n2)cc1OC [Compound 84, (5-(6-(3,4-dimethoxyphenylamino)imidazo[1,2-b]pyridazin-3-yl)thiophen-2-yl)methanol], which IC50 is on record?
**A.** Its IC50 is < 5000 nM.

**Q.** For Oc1cccc(-c2cnc3ccc(N[C@H]4CC[C@H](O)CC4)nn23)c1 [Compound 101, trans-3-(6-(4-hydroxycyclohexylamino)imidazo[1,2-b]pyridazin-3-yl)phenol], which IC50 is on record?
**A.** The IC50 was < 5000 nM.

**Q.** Which IC50 does the source give for Cc1nc2ccc(N[C@H]3CC[C@H](O)CC3)nn2c1-c1cc2ccccc2s1 [Compound 111, 4-(3-(benzo[b]thiophen-2-yl)-2-methylimidazo[1,2-b]pyridazin-6-ylamino)cyclohexanol] here?
**A.** The IC50 was < 5000 nM.
